Results taken from paper PMC8891108, “Development and characterization of anti-fibrotic natural compound similars with improved effectivity” (Basic Research in Cardiology, 2022).

Assays:
Format in all cases: cell-based
[1] = system: human cardiac fibroblasts (HCF); experiment: BrdU incorporation, HCF proliferation (first screen); details: Homo sapiens, Cardiac fibroblast, 24 h, read-out: Effective conc. (BrdU), EC50 by BrdU assay
Procedure: 96-well plates (TPP) were coated with 0.1% gelatine and seeded with 7500 HCFs/well. After 72 h, medium was exchanged with serial dilutions of compounds in FGM-3 + 1.6% DMSO + 1% 5-bromo-2′-deoxyuridine (BrdU, Roche, #11647229001), prepared in additional plates. After 24 h, cells were washed twice with DPBS (Gibco, #14190144) before incubation with anti-BrdU:POD (Roche, #11647229001) for 60 min (RT). Readout was performed by measurement of absorbance at 370 nm + 490 nm in a Synergy HT (BioTek) microplate reader. […] As validation, HCF were seeded as before, but treated with serial dilutions of compounds after 24 h. […] After 60 min of incubation (37 °C, in the dark), absorbance at 450 nm + 630 nm was measured maintaining 37 °C and analysed as described before.
To assess screening quality, quality acceptance criteria Z′ (Z prime), SW (signal window), S:B (signal-to-background), S:N (signal-to-noise) were determined following. Average Z′ ≥ 0.5 and SW ≥ 2 were required to accept the screening overall, whereas single plates were rejected from analysis if Z′ < 0.3 or SW < 1.

[2] = system: human cardiac fibroblasts (HCF); experiment: Caspase-3/7 activation (Caspase-Glo) in HCF; details: within the tested concentration range
Procedure: As contrast to activity, toxicity of top six similars and lead compounds was determined by a multiplex measurement of caspase activation and membrane integrity (using LDH release and inclusion of the CellTox Green dye). Briefly, HCFs were seeded as before. After 24 h, cells were treated with serial dilutions of compounds with additional 0.1% CellTox™ Green dye (Promega, #G8741). After 24 h incubation, 5 µL medium was removed from each well, mixed with 95 µL LDH Storage buffer (Promega, #J2380) and frozen for later analysis. 95 µL Caspase-Glo® 3/7 reagent (Promega, #G8090) was added to each well, and after 60 min of incubation luminescence was measured in a Synergy HT. Afterwards, micrographs of brightfield and green fluorescence were taken using a Cytation 1 (BioTek) automated microscope maintaining 37 °C and 5% CO2. Wells were manually checked for co-localization of fluorescence signal with cells in brightfield. On the next day, supernatants in LDH Storage buffer were thawed, and 50 µL was mixed with 50 µL of LDH Detection reagent and luminescence was measured after 60 min of incubation. Dose–response curves were determined as described before. To determine toxicity of the top 3 anti-fibrotic similars in hiPS-CM, 20,000 cells/well were seeded, treated and analysed as above, devoid the fluorescent dye steps.

[3] = system: human cardiac fibroblasts (HCF); experiment: In vitro migration (scratch) assay of HCF; details: 10 × EC50
Procedure: To assess migrative capabilities of HCF, cells were stained with 1:1000 1,1′-Dioctadecyl-3,3,3′,3′-Tetramethylindotricarbocyanine Iodide (DIR′) dye in FGM-3 for 20 min at 37 °C. Cells were washed with DPBS and seeded into 0.1% gelatine-coated 96-well plates at 30,000 cells per well. […] After 17 h and 24 h, plates were imaged again. Rate of migration was determined using the migrative index (MI).

[4] = system: human cardiac fibroblasts (HCF); experiment: TaqMan Array Human MicroRNA Cards, miRNA deregulation in HCF
Procedure: PCR amplification of array cards was performed as instructed. After quality control of all real-time qPCRs, cT values were exported and all runs were merged into a single excel file. Recommended baseline correction using relative thresholds to correct for varying reconstitution rates of different Taqman probes was not performed. Low-expressed miRNAs with cT > 32 in more than 1 replicate per treatment were excluded from analysis, before samples were normalized to column mean. Multiple unpaired t tests were performed using GraphPad Prism, deregulations were accepted as discoveries if FDR ≤ 1% (using BKY adjustment). As miRNA identifiers were based on miRbase v14, we converted them to the latest v22 for further analysis using miRBaseConverter. 747 sequences could be converted correctly, while the remaining miRNAs were removed from miRbase due to incorrect annotation (e.g. the sequences of hsa-miR-886-3p and hsa-miR-886-5p are part of VTRNA2-1 [44]) or no evidence of human expression.

[5] = mean of DMSO minus mean of treatment

Compound: C[C@]12CC[C@H](O)C[C@H]1CC[C@@H]1[C@@H]2CC[C@]2(C)[C@@H](c3ccc(=O)oc3)CC[C@]12O [Bufalin, bufalin]
- EC50 [1]: 2.1 nM
- induction of Caspase-3/7 [2]: dose-dependent induction of Caspase-3/7
- HCF migration [3]: nearly complete lack of migration within the first half hour
- Mean of treatment, hsa-miR-125a-5p-002198 ([4]; cT normalized to column mean): -1.094
- Mean of treatment, hsa-miR-132-000457 ([4]; cT normalized to column mean): -3.644
- Mean of treatment, hsa-miR-146a-000468 ([4]; cT normalized to column mean): -6.478
- Mean of treatment, hsa-miR-886-3p-002194 ([4]; cT normalized to column mean): -0.5419
- Difference / ΔCT, hsa-miR-125a-5p-002198 [4, 5]: -1.48
- Difference / ΔCT, hsa-miR-132-000457 [4, 5]: 1.1
- Difference / ΔCT, hsa-miR-146a-000468 [4, 5]: -1.167
- Difference / ΔCT, hsa-miR-886-3p-002194 [4, 5]: -2.302
